Like-named read-outs stand apart in the source and are kept apart here. Square brackets hold non-standard residues; d marks the D form. Peptide text beside a SMILES is read from it. * marks the point of attachment. Dolaproine = CO[C@@H]([C@@H]1CCCN1)[C@@H](C)C(=O)O; Dil = CC[C@H](C)[C@H](NC)[C@@H](CC(=O)O)OC; X1 = C[C@@H](N*)[C@@H](O)c1ccccc1; NMeV = CN[C@H](C(=O)O)C(C)C

For data set [1], the system named is HEK 293T (human embryonic kidney cancer cell line). To be noted: for IC50: read-out: IC50 HEK 293T.
Data set [2] has as its system MES SA (human uterine sarcoma). The following applies: for IC50: read-out: IC50 MES SA.
The subject of data set [3] is MES SA DX (human uterine sarcoma cell line with marked multidrug resistance). The following applies: for IC50: read-out: IC50 MES SA DX.
Data set [4] shares this test system. Description: cells. The following applies: 72 h, read-out: IC50 MES SA DX.
Data set [5] concerns MES SA (human uterine sarcoma). Description: cells. The following applies: 72 h, read-out: IC50 MES SA.
Data set [6] concerns HEK 293T (human embryonic kidney cancer cell line). Description: cells. The following applies: 72 h, read-out: IC50 HEK 293T.

One may read the IC50 as the midpoint of a concentration-inhibition curve. Take `COc1c2c(c(O)c3c4c(c(C)cc13)[C@@H]1O[C@@]3(C(OC)OC)O[C@@H]1[C@@](O[C@H]1C[C@@H](O)[C@@](O)(C(C)=O)[C@H](C)O1)(O4)[C@@]31CO1)C(=O)[C@@H](O)C[C@@H]2O[C@H]1C[C@@](C)(O)[C@H](O)[C@H](C)O1` [Trioxacarcin D, reference compound]: the IC50 was 8.02 nM in data set [1], 11.1 nM in data set [2] and > 1000 nM in data set [3].

Consider `COc1c2c(c(OC(C)=O)c3c4c(c(C)cc13)[C@H]1O[C@]3(C5OCCCO5)O[C@@H]1[C@@](OC(C)=O)(O4)[C@@]31CO1)C(=O)CCC2` [Trx26, (1S,2S,3aS,4R,13aS)-2-(1,3-Dioxan-2-yl)-7-methoxy-5-methyl-11-oxo-3a,4,8,9,10,11-hexahydro-13aH-spiro[2,4-epoxyfuro[3,2-b]naphtho[2,3-h]chromene-1,2′-oxirane]-12,13a-diyl diacetate], for which the “cytotoxic potency against HEK 293T, in words” value in data set [1] is given as “no significant loss of potency”. For the same compound, the “cytotoxic potency against MES SA, in words” value in data set [2] is reported as “no significant loss of potency”. Besides, the “cytotoxic potency against MES SA DX, in words” value in data set [3] is reported as “no significant loss of potency”. Besides, the IC50 stood at 60.3 nM in data set [4], 67.4 nM in data set [5] and 11.6 nM in data set [6].

Take `C=CCO[C@@]12Oc3c(c(C)cc4c(OC)c5c(c(O)c34)C(=O)CCC5)[C@H]3O[C@](C4OCCCO4)(O[C@@H]31)[C@]21CO1` [Trx17, (1S,2S,3aS,4R,13aR)-13a-(Allyloxy)-2-(1,3-dioxan-2-yl)-12-hydroxy-7-methoxy-5-methyl-3a,4,8,9,10,13a-hexahydro-11H-spiro[2,4-epoxyfuro[3,2-b]naphtho[2,3-h]chromene-1,2′-oxiran]-11-one]: the IC50 was determined as 3.48 nM in data set [4], 4.91 nM in data set [5] and 2.77 nM in data set [6].

For the compound `COc1c2c(c(O)c3c4c(c(C)cc13)C1OC3(C5OCCCO5)OC1[C@@](OCC=CCO[C@@]15Oc6c(c(C)cc7c(OC)c8c(c(O)c67)C(=O)CCC8)C6OC(C7OCCCO7)(OC61)[C@]51CO1)(O4)[C@@]31CO1)C(=O)CCC2` (stereo partly drawn) [Trx25, (1S,2S,3aS,4R,13aR,1′″S,2′″S,3a′″S,4′R,13a′″R)-13a,13a′-[(2E)-but-2-ene-1,4-diylbis(oxy)]bis[2-(1,3-dioxan-2-yl)-12-hydroxy-7-methoxy-5-methyl-3a,4,8,9,10,13a-hexahydro-11H-spiro[2,4-epoxyfuro[3,2-b]naphtho[2,3-h]chromene-1,2′-oxiran]-11-one]], the results for the IC50 in data set [1], in data set [2] and in data set [3] were 105 nM, 235 nM and 429 nM, respectively.

As to `COc1c2c(c(O)c3c4c(c(C)cc13)C1OC3(C5OCCCO5)OC1[C@@](O)(O4)[C@@]31CO1)C(=O)CCC2` (stereo partly drawn) [Trx12], the IC50 was found to be 5.72 nM in data set [4], 3.72 nM in data set [5] and 2.46 nM in data set [6].

Consider `COc1c2c(c(O)c3c4c(c(C)cc13)C1O[C@@]3(C5OCCCO5)OC1[C@@](O[C@H]1C[C@H](O)[C@@](O)([C@@H](C)O)[C@H](C)O1)(O4)[C@@]31CO1)C(=O)CCC2` (stereo partly drawn) [Trx23, (1S,2R,13aS)-2-(1,3-dioxan-2-yl)-12-hydroxy-7-methoxy-5-methyl-11-oxo-3a,4,8,9,10,11-hexahydro-13aH-spiro[2,4-epoxyfuro[3,2-b]naphtho[2,3-h]chromene-1,2′-oxiran]-13a-yl 2,6-dideoxy-4-C-[(1R)-1-hydroxyethyl]-α-L-lyxo-hexopyranoside], for which the IC50 came out at 33.7 nM in data set [4], 5.85 nM in data set [5] and 2.74 nM in data set [6].

Take `COc1c2c(c(O)c3c4c(c(C)cc13)[C@H]1O[C@]3(C5OCCO5)O[C@@H]1[C@](OC)(O4)[C@@]31CO1)C(=O)CCC2` [Trx9, (1S,2S,3aS,4R,13aS)-2-(1,3-Dioxolan-2-yl)-12-hydroxy-7,13a-dimethoxy-5-methyl-3a,4,8,9,10,13a-hexahydro-11H-spiro[2,4-epoxyfuro[3,2-b]naphtho[2,3-h]chromene-1,2′-oxiran]-11-one]: the values for the IC50 in data set [4], in data set [5] and in data set [6] were 2.63 nM, 4.67 nM and 2.04 nM, respectively.

For `CO[C@@]12Oc3c4c(cc(C)c3[C@H]3O[C@](C5OCCCO5)(O[C@@H]31)[C@]21CO1)C(=O)c1cccc(OC(C)=O)c1C4=O` [Trx29, (1S,2S,3aS,4R,13aR)-2-(1,3-Dioxan-2-yl)-13a-methoxy-5-methyl-7,12-dioxo-3a,7,12,13a-tetrahydro-4H-spiro[2,4-epoxyfuro[3,2-b]naphtho[2,3-h]chromene-1,2′-oxiran]-11-yl acetate], the IC50 in data set [4] came out at 1.05 nM; in data set [5] it was 1.44 nM; in data set [6], 1.87 nM.

Consider `COc1c2c(c(O)c3c4c(c(C)cc13)C1O[C@@]3(C5OCCCO5)OC1C(O[C@H]1C[C@H](OC)[C@@H](NC(C)C)CO1)(O4)[C@@]31CO1)C(=O)CCC2` (stereo partly drawn) [Trx19, (1S,2R)-2-(1,3-dioxan-2-yl)-12-hydroxy-7-methoxy-5-methyl-11-oxo-3a,4,8,9,10,11-hexahydro-13aH-spiro[2,4-epoxyfuro[3,2-b]naphtho[2,3-h]chromene-1,2′-oxiran]-13a-yl 2,4-dideoxy-4-(iso-propylamino)-3-O-methyl-α-L-threo-pentopyranoside], for which the values for the IC50 in data set [4], in data set [5] and in data set [6] were 70.7 nM, 0.96 nM and 0.77 nM, respectively.

In the case of `COc1c2c(c(O)c3c4c(c(C)cc13)C1OC3(C5OCCCO5)OC1[C@@](OC)(O4)[C@@]31CO1)C(=O)CCC2` (stereo partly drawn) [Trx13], the IC50 was determined as 0.4 nM in data set [1]; 0.56 nM in data set [2]; 0.42 nM in data set [3]; 0.38 nM in data set [4]; 0.53 nM in data set [5]; 0.5 nM in data set [6].

With `CC[C@H](C)[C@@H]([C@@H](CC(=O)N1CCC[C@H]1[C@H](OC)[C@@H](C)C(=O)N[C@H](C)[C@@H](O)c1ccccc1)OC)N(C)C(=O)[C@@H](NC(=O)[C@@H](NC)C(C)C)C(C)C` [MMAE, monomethyl auristatin E, reference compound] (H-[NMeV]V[Dil][Dolaproine]-X1), the concentration for half-maximal inhibition (IC50) in data set [1] was 0.08 nM; in data set [2] it was 0.06 nM; in data set [3], > 70 nM.

Consider `COc1c2c(c(O)c3c4c(c(C)cc13)C1O[C@@]3(C5OCCCO5)OC1[C@@](O[C@H]1C[C@H](OC(C)=O)[C@@](O)(C(C)=O)[C@H](C)O1)(O4)[C@@]31CO1)C(=O)CCC2` (stereo partly drawn) [Trx20, (1S,2R,13aS)-2-(1,3-dioxan-2-yl)-12-hydroxy-7-methoxy-5-methyl-11-oxo-3a,4,8,9,10,11-hexahydro-13aH-spiro[2,4-epoxyfuro[3,2-b]naphtho[2,3-h]chromene-1,2′-oxiran]-13a-yl 4-C-acetyl-3-O-acetyl-2,6-dideoxy-α-L-lyxo-hexopyranoside], for which the IC50 in data set [4] came out at 52.4 nM; in data set [5] it was 5.14 nM; in data set [6], 4.31 nM.

In the case of “(4R,5S,6R,10S)-8-{[(1S,2R)-2-(1,3-Dioxan-2-yl)-12-hydroxy-7-methoxy-5-methyl-11-oxo-3a,4,8,9,10,11-hexahydro-13aH-spiro[2,4-epoxyfuro[3,2-b]naphtho[2,3-h]chromene-1,2′-oxiran]-13a-yl]oxy}-4,6-dimethyl-2-oxo-1,3,7-trioxaspiro[4.5]dec-10-ylacetate [Trx22]”, the IC50 in data set [1] is 4.2 nM; in data set [2], 5.74 nM; in data set [3], 56.9 nM.

`COc1c2c(c(O)c3c4c(c(C)cc13)C1OC3(C5OCCCO5)OC1[C@@](OCC=CCO[C@@]15Oc6c(c(C)cc7c(OC)c8c(c(O)c67)C(=O)CCC8)C6OC(C7OCCCO7)(OC61)[C@]51CO1)(O4)[C@@]31CO1)C(=O)CCC2` (stereo partly drawn) [Trx24, (1S,2S,3aS,4R,13aR,1′″S,2′″S,3a′″S,4′″R,13a′″R)-13a,13a′-[(2Z)-but-2-ene-1,4-diylbis(oxy)]bis[2-(1,3-dioxan-2-yl)-12-hydroxy-7-methoxy-5-methyl-3a,4,8,9,10,13a-hexahydro-11H-spiro[2,4-epoxyfuro[3,2-b]naphtho[2,3-h]chromene-1,2′-oxiran]-11-one]]: the IC50 is > 1000 nM in data set [2], > 1000 nM in data set [3] and 115 nM in data set [6].

With `COc1c2c(c(OC(C)=O)c3c4c(c(C)cc13)[C@H]1O[C@]3(C5OCCCO5)O[C@@H]1[C@@](OC)(O4)[C@@]31CO1)C(=O)CCC2` [Trx27, (1S,2S,3aS,4R,13aR)-2-(1,3-Dioxan-2-yl)-7,13a-dimethoxy-5-methyl-11-oxo-3a,8,9,10,11,13a-hexahydro-4H-spiro[2,4-epoxyfuro[3,2-b]naphtho[2,3-h]chromene-1,2′-oxiran]-12-yl acetate], the “cytotoxic potency against HEK 293T, in words” value in data set [1] is on record as “no significant loss of potency”. In data set [2], the “cytotoxic potency against MES SA, in words” value is “no significant loss of potency”. Also, the “cytotoxic potency against MES SA DX, in words” value in data set [3] is “no significant loss of potency”. Besides, the IC50 is 1.43 nM in data set [4], 2.15 nM in data set [5] and 1.24 nM in data set [6].

Turning to `COc1c2c(c(O)c3c4c(c(C)cc13)[C@@H]1O[C@@]3(C(OC)OC)O[C@@H]1[C@@](O[C@H]1C[C@@H](O)[C@@](O)(C(C)=O)[C@H](C)O1)(O4)[C@@]31CO1)C(=O)[C@@H](O)C[C@@H]2O[C@H]1C[C@@](C)(O)[C@H](OC(C)=O)[C@H](C)O1` [Trioxacarcin A], the IC50 in data set [1] came to 0.702 nM; in data set [2] it was 0.74 nM; in data set [3], 204 nM.

For `CC(=O)Oc1c(Cl)ccc2c1C(=O)c1c(cc(C)c3c1O[C@]1(OC(C)=O)[C@H]4O[C@@](C5OCCCO5)(O[C@H]34)[C@]13CO3)C2=O` [Trx32, (1S,2S,3aS,4R,13aS)-10-Chloro-2-(1,3-dioxan-2-yl)-5-methyl-7,12-dioxo-3a,4,7,12-tetrahydro-13aH-spiro[2,4-epoxyfuro[3,2-b]naphtho[2,3-h]chromene-1,2′-oxirane]-11,13a-diyl diacetate], the IC50 in data set [4] came to 4.41 nM; in data set [5], 5.96 nM; in data set [6], 6.73 nM.

(Values after patent publication US20210230178A1, “TRIOXACARCIN ANALOGS AND DIMERS AS POTENT ANTICANCER AGENTS” (William Marsh Rice University, priority 2017, published 2021).)
